Reference: patent publication US12497610B2, “Functional genomics using CRISPR-CAS systems for saturating mutagenesis of non-coding elements, compositions, methods, libraries and applications thereof” (THE BROAD INSTITUTE, INC., priority 2015, dated 2025)

Columns and labels:
[1] = test system: YY1; assay: ChIP-ddPCR for YY1; type: cell-based, human; conditions: ChIP-ddPCR around cut site vs non-targeting sgRNA
Description: Chromatin Immunoprecipitation (ChIP) for Histone Modifications and Transcription Factors
After 7 days of puromycin selection, A375 cells transduced with individual lentiCRISPRv2 sgRNAs were plated in T-225 flasks and grown to 70-90% confluence (6 days). At this point, chromatin fixation was initiated by adding formaldehyde directly to the growth media (final concentration 1%) and incubating at 37° C. for 10 minutes. The entire two-day ChIP procedure was performed using the Magna ChIP HiSens Chromatin Immunoprecipitation Kit (Millipore 1710460), as specified in the manufacturer's protocol. […]
Using BatchPrimer3, Applicants designed primers centered on the sgRNA target site with a target amplicon size of 80-120 bp (see table S4 for ChIP-ddPCR primers). Droplet digital PCR (ddPCR) reactions using EvaGreen (BioRad 1864034) were used to quantify changes between input, histone/TF ChIP, and IgG ChIP samples for A375 cells transduced with specific sgRNAs and untransduced A375 cells. […] Applicants calculated the percent change in ChIP signal after genome editing by normalizing each ChIP sample to its corresponding input sample and then comparing the normalized ChIP between A375s transduced with specific sgRNAs and untransduced (control) A375 cells.

[2] = test system: CUL3; assay: ddPCR quantification of CUL3 expression in A375 cells transduced with individual sgRNAs; type: cell-based, human; conditions: A375, relative to non-targeting sgRNAs; result in words
Source text: Array Validation of Primary Screen Hits
For individual (array) validation of noncoding sgRNAs, Applicants first identified sgRNAs enriched in the top 5% of the library as given by the normalized log 2(Vemu/DMSO) read ratio. In order to have high confidence in these sgRNAs, Applicants used the minimum of the two infection replicates for the normalized log2 (Vemu/DMSO) read ratio. […] This ensures that putative noncoding functional elements were supported by the presence of at least 2 enriched sgRNAs. From this group, Applicants picked 25 sgRNAs distributed across different genomic regions for individual validation (see table S2 for a list of sgRNA sequences). Applicants also included 3 exon-targeting and 3 non-targeting sgRNAs to serve as positive and negative controls, respectively.
For each sgRNA, standard desalted short oligonucleotides (Integrated DNA Technologies) were annealed, phosphorylated and cloned into a lentiviral vector (lentiCRISPRv2, Addgene 52961) that contained Cas9 and an sgRNA cassette. For each sgRNA, A375 cells were transduced with lentiviral supernatants. After 24 hours, media was replaced with R10 with 1 ug/mL of puromycin. Viral volumes were titered such that 20-40% of cells survived after puromycin selection. After selection and expansion for 7 days in puromycin, cell were plated for DNA/RNA extraction, vemurafenib resistance, or ChIP assays.
RNA Extraction and ddPCR Quantification of CUL3 Expression
After 7 days of puromycin selection, A375 cells transduced with individual lentiCRISPRv2 sgRNAs were plated in 3 replicate wells (2×10^3 cells/well) in 96-well plates. After 4 days (70-90% confluent), RNA was extracted using a homemade version of a rapid lysis kit for quantitative PCR (similar to commercial “Cells-to-Ct”-style kits). This procedure (detailed below) enables rapid RNA extraction and qPCR/ddPCR readout from 96-well plates with minimal hands-on time.
Cells were first washed in 100 ul of chilled phosphate-buffered saline (PBS). Then, cells were incubated at room temperature for 8 minutes in 50 ul of Complete Lysis Buffer. The Complete Lysis Buffer consists of the Base Lysis Buffer with freshly added 100 ug/ml Proteinase K (Sigma P2308) and 300 U/mL DNase I (Sigma D2821). When adding DNase I, it is important to not vortex but mix only by gentle pipetting. The Base Lysis Buffer is made in RNAse-free water (ThermoFisher Scientific 10977015) with 10 mM Tris pH8 (Ambion AM9856), 0.5 mM MgCl2 (Sigma M1028), 0.44 mM CaCl2 (Sigma 21115), 10 uM DTT (Sigma 43816), 0.1% Triton X-114 (Calbiochem 648468), and 1.73 mN HCl (Sigma 318965) and should have a final pH of 7.8. The Base Lysis Buffer is stable at 4° C. for up to 6 months.
After the 8-minute incubation in Complete Lysis Buffer, 30 ul of the cell lysis was added to new PCR plates containing 3 ul of STOP buffer in each well to stop the lysis reaction. The STOP buffer is made in RNAse-free water with 1 mM Proteinase K inhibitor AAPF N-(Methoxysuccinyl)-Ala-Ala-Pro-Phe-chloromethyl ketone (SEQ ID NO: 174) (Millipore 539470), 90 mM EDTA (ThermoFisher Scientific 15575020), and 113 uM DTT (Sigma 43816). The final pH of the STOP buffer should be 8, adjusted appropriately with HCl and KOH. The STOP buffer is stable for up to 6 months at 20° C. The lysis reaction was mixed with the STOP buffer by pipetting up and down 5 times. Applicants then incubated the lysis and STOP buffer for at least 2 minutes but not more than 20 minutes. (Extra stopped lysis can be stored at −80° C. for up to 5 months.)
Applicants transferred 5 ul of the stopped lysis to new PCR plates with 20 ul of RT master mix. The RT master mix is from the RevertAid Reverse Transcriptase kit (ThermoFisher Scientific K1691) and is as described in the manufacturer's protocol but with an added oligo-dT primer. […]

[3] = test system: human BCL11A erythroid enhancer; assay: Tiled pooled CRISPR-Cas9 screen for in situ functional mapping of the human BCL11A erythroid enhancer (HbF-high/HbF-low sort, sgRNA deep sequencing); type: cell-based; conditions: for Enrichment Score: HbF enrichment, human library NGG and NGG RC sgRNAs filtered for enrichment score >0.259; for Dropout Score: human library sgRNAs that produced HbF enrichment over 0.259
Summary of the method: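 HUDEP-2 cells stably expressing Cas9 transduced at low multiplicity with tiled sgRNA library covering +55/+58/+62 DHS, selected with blasticidin/puromycin, expanded one week then differentiated one week. Top and bottom 10% HbF-stained cells FACS-sorted; sgRNA representation determined by deep sequencing of genomic DNA.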

[4] = test system: sgRNA target sites near CUL3; assay: Deep sequencing after CRISPR mutagenesis (indel analysis at sgRNA target sites); type: cell-based, human; conditions: A375, vemurafenib vs DMSO control, 4 days
Description: Deep Sequencing after CRISPR Mutagenesis
After 7 days of puromycin selection, A375 cells transduced with individual lentiCRISPRv2 sgRNAs were plated in 2 replicate wells (2×10^3 cells/well) in 96-well plates. Cells were plated in either R10+DMSO or R10+vemurafenib (2 uM). After 4 days (70-90% confluent), Applicants extracted gDNA from all wells (Illumina/Epicentre QuickExtract QE09050) and performed amplification and deep sequencing as previously described (Shalem et al. 2014). Briefly, for each sgRNA target site, Applicants designed PCR primers to amplify genomic regions surrounding the site (100-200 bp amplicons) and to add universal handles for the second stage of amplification (see table S3 for all deep sequencing primers). Applicants then used a second PCR step to add sequences needed for Illumina sequencing and sample barcoding. Applicants pooled all samples together and sequenced them on a MiSeq using a 250 bp single-end read (Illumina MS-102-2002).
Custom Python scripts were used for barcode demultiplexing and insertion-deletion (indel) length measurement. To measure indel length and eliminate any potential off-target or primer-dimer reads, Applicants first identified our genomic (first PCR step) primers in each read. Applicants then checked that each read contained at least 5 bases beyond each of the genomic primers. Typically, 80-90% of demultiplexed reads matched this criterion. Reads matching this criterion were used to measure indel length by comparing distances between the identified primer-adjacent sequences with those in the reference sequence. Further multiple alignment analysis for specific sgRNAs was done using Geneious's iterative k-mer multiple alignment tool (Geneious 6.1.7).

## 5′-UTR sg1: validation sgRNA AGGAGGAGGAGGACGACGTT, SEQ ID NO 457, 5′ UTR (expressed or natural sequence)
[1]
  decrease of YY1 binding: 26%
[2]
  CUL3 expression: significantly decrease

## BCL_00267_H_exon2 (guide TGGCATCCAGGTCACGCCAGNGG; listed as DNA, chemistry not given here)
[3]
  Enrichment Score: 2.049
  Dropout Score: −2.006

## BCL_00086_H_D55 (guide CTCCAAGCATTGCATCATCCNGG; listed as DNA, chemistry not given here)
[3]
  Enrichment Score: 0.6343
  Dropout Score: −0.2703

## BCL_01799_H_D62 (guide CTCAGGTGATCCTCCTGCCCNGGRC; listed as DNA, chemistry not given here)
[3]
  Enrichment Score: 0.9108
  Dropout Score: −9.478

## BCL_02014_H_exon2 (guide TCTGTAAGAATGGCTTCAAGNGGRC; listed as DNA, chemistry not given here)
[3]
  Enrichment Score: 0.9901
  Dropout Score: −0.7711

## BCL_00057_H_D55 (guide GGAAGGGCCTCTATGTAGACNGG; listed as DNA, chemistry not given here)
[3]
  Enrichment Score: 0.46
  Dropout Score: −0.4451

## BCL_00087_H_D55 (guide CATTGCATCATCCTGGTACCNGG; listed as DNA, chemistry not given here)
[3]
  Enrichment Score: 0.438
  Dropout Score: −0.2253

## BCL_01990_H_exon2 (guide GATAAACAATCGTCATCCTCNGGRC; listed as DNA, chemistry not given here)
[3]
  Enrichment Score: 0.8422
  Dropout Score: −0.6128

## BCL_00238_H_D62 (guide TGCCTGTAATCTCAGCTACTNGG; listed as DNA, chemistry not given here)
[3]
  Enrichment Score: 0.6113
  Dropout Score: −8.923

## BCL_01428_H_D55 (guide GAATGTCCCAGGCCAATTCTNGGRC; listed as DNA, chemistry not given here)
[3]
  Enrichment Score: 0.4299
  Dropout Score: −0.5435

## BCL_00227_H_D62 (guide ATCCCAGCACTTTGGGAGGCNGG; listed as DNA, chemistry not given here)
[3]
  Enrichment Score: 0.79
  Dropout Score: −8.099

## BCL_00252_H_exon2 (guide GCCCGTTGGGAGCTCCAGAANGG; listed as DNA, chemistry not given here)
[3]
  Enrichment Score: 0.5453
  Dropout Score: 0.09212

## 5′-UTR sg2: validation sgRNA GCGCTCCTCCGCGATGGCGG, SEQ ID NO 456, 5′ UTR (expressed or natural sequence)
[1]
  decrease of YY1 binding: 67%
[2]
  CUL3 expression: significantly decrease
[4]
  indel mutations that damage a YY1 binding motif: more indel mutations that damage a YY1 binding motif

## BCL_00245_H_D62 (guide GGAGATCGCTTGAACCTGGGNGG; listed as DNA, chemistry not given here)
[3]
  Enrichment Score: 0.4762
  Dropout Score: −5.067

## BCL_00264_H_exon2 (guide AAAAGCATCCAATCCCGTGGNGG; listed as DNA, chemistry not given here)
[3]
  Enrichment Score: 0.5578
  Dropout Score: −1.376

## BCL_02015_H_exon2 (guide AAGAATGGCTTCAAGAGGCT; chemistry not given here)
[3]
  Enrichment Score: 1.064
  Dropout Score: −1.349

## BCL_01790_H_D62 (guide TTGCCCGGGCTGGAATGCAANGGRC; listed as DNA, chemistry not given here)
[3]
  Enrichment Score: 0.4673
  Dropout Score: −8.123

## BCL_00096_H_D55 (guide AGCAAATAGGCTTAGTGTGCNGG; listed as DNA, chemistry not given here)
[3]
  Enrichment Score: 0.3521
  Dropout Score: −0.2396

## BCL_02000_H_exon2 (guide TCGATTGGTGAAGGGGAAGGNGGRC; listed as DNA, chemistry not given here)
[3]
  Enrichment Score: 0.4624
  Dropout Score: −1.365

## BCL_01669_H_D58 (guide CCAGCTGAAGAAAGAACATTNGGRC; listed as DNA, chemistry not given here)
[3]
  Enrichment Score: 0.3196
  Dropout Score: −0.00075

## BCL_01825_H_D62 (guide ATTTGCTCTTCTCCAGGGTGNGGRC; listed as DNA, chemistry not given here)
[3]
  Enrichment Score: 0.2818
  Dropout Score: −0.3945

## BCL_01497_H_D55 (guide AAGAGGCCACTGAGTCCTTTNGGRC; listed as DNA, chemistry not given here)
[3]
  Enrichment Score: 0.43
  Dropout Score: 0.4562

## BCL_00092_H_D55 (guide TTCCCTTCCTAGAATTGGCCNGG; listed as DNA, chemistry not given here)
[3]
  Enrichment Score: 0.4035
  Dropout Score: −0.4369
